Assay results from patent US20220062371A1, “LIGAND-DRUG-CONJUGATES AS SUBSTRATES FOR SELECTIVE CLEAVAGE BY THE EXOPEPTIDASE ACTIVITY OF CATHEPSIN B” (DEBIOPHARM RESEARCH & MANUFACTURING S.A., priority 2017, published 2022).
Several values for one entry are separate records, joined by “and”; a condition that tells them apart may be missing. Identical values can stand only once. Like-named read-outs stand apart in the source and are kept apart here. Non-standard residues stand in square brackets, D forms with d. Residues, ends and D or L forms follow the SMILES beside them. *: point of attachment. Dolaproine = CO[C@@H]([C@@H]1CCCN1)[C@@H](C)C(=O)O; Dil = CC[C@H](C)[C@H](NC)[C@@H](CC(=O)O)OC; NMe2Val = CC(C)[C@@H](C(=O)*)N(C)C

How the values were obtained:
Test in all cases: Cytotoxic activity, Alamar Blue assay
Assay type in all cases: cell-based
[1] = system: SK-OV-3 (ErbB2-expressing) cells
Experimental: (§1) Log phase cultures of cell lines SK-OV-3 (ErbB2-expressing), SK-BR-3 (ErbB2-expressing), BT-474 (ErbB2-expressing) and MDA-MB-231 (ErbB2 negative) were collected and cells plated at seeding densities ranging from 1,500 to 12,000 cells/well in 96-well microtiter plates according to pre-determined conditions.
(§2) Assessment of cellular growth was done using Alamar Blue (available from Thermo Fisher Scientific) dye reduction assay. Alamar Blue was added to cells to constitute 10% culture volume. Cells were incubated for 4 to 6 hours, and dye reduction was measured by fluorescence on an EnSpire plate reader (Perkin Elmer). Background corrected fluorescence measurements were transformed in % scale by considering vehicle value as 100% activity (relative measurements). Next, relative measurements were analyzed using GraphPad Prism software to derive relative IC50. All experiments were done twice with 3 replicates per concentration. Error bars: SEM (n=3). Cytotoxicity of AF and AF-Arg on ErbB2-expressing SK-OV-3 and SK-BR-3 cells after 72 and 120 h of treatment. SK-OV-3 and SK-BR-3 cells were seeded the day before treatment in complete culture medium. After overnight resting, cells were treated with decreasing concentrations of test compounds in complete culture medium (AF: 10 μM-1 pM; AF-Arg: 10 μM-1 pM, log-dilution).
(§3) SK-OV-3, SK-BR-3 and MDA-MB-231 cells were seeded the day before treatment in complete culture medium.

[2] = system: SK-BR-3 (ErbB2-expressing) cells
Experimental: as §1, §2, §3

[3] = system: MDA-MB-231 (ErbB2 negative) cells; settings: read-out: Relative IC50 at 96 h (day 4)
Experimental: as §1, §2, §3
BT-474 and MDA-MB-231 cells were seeded the day before treatment in complete culture medium.

[4] = system: BT-474 (ErbB2-expressing) cells; settings: ADC3 study, read-out: Relative IC50 at 96 h (day 4)
Experimental: as §1
as §2, with “log-dilution). […]” for “log-dilution).”

[5] = system: SK-OV-3 (ErbB2-expressing) cells; settings: ADC1 study, read-out: Relative IC50 at 96 h (day 4)
[6] = system: SK-BR-3 (ErbB2-expressing) cells; settings: ADC1 study, read-out: Relative IC50 at 96 h (day 4)
[7] = SK-OV-3, run 1, 72 h, read-out: Relative IC50 at 72 h (day 3)
[8] = SK-OV-3, run 1, 120 h, read-out: Relative IC50 at 120 h (day 5)
[9] = SK-OV-3, run 2, 72 h, read-out: Relative IC50 at 72 h (day 3)
[10] = SK-OV-3, run 2, 120 h, read-out: Relative IC50 at 120 h (day 5)
[11] = SK-BR-3, run 1, 72 h, read-out: Relative IC50 at 72 h (day 3)
[12] = SK-BR-3, run 1, 120 h, read-out: Relative IC50 at 120 h (day 5)
[13] = SK-BR-3, run 2, 72 h, read-out: Relative IC50 at 72 h (day 3)
[14] = SK-BR-3, run 2, 120 h, read-out: Relative IC50 at 120 h (day 5)

Row | Molecule | IC50 [1, 7] [µM] | IC50 [1, 8] | IC50 [1, 9] [µM] | IC50 [1, 10] [µM] | IC50 [2, 11] [µM] | IC50 [2, 12] [µM] | IC50 [2, 13] [µM] | IC50 [2, 14] [µM] | IC50 ([3]; MDA-MB-231, run 1, 96 h, ADC3 study) [µM] | IC50 ([3]; MDA-MB-231, run 2, 96 h, ADC3 study) [µM] | IC50 ([4]; BT-474, run 1, 96 h) [µM] | IC50 ([4]; BT-474, run 2, 96 h) [µM] | retained cytotoxic activity relative to the native drug (AF) ([1]; SK-OV-3 cells, 120 h) | retained cytotoxic activity relative to the native drug (AF) ([2]; SK-BR-3 cells, 120 h) | IC50 ([3]; MDA-MB-231, run 1, 96 h, ADC1 study) [µM] | IC50 ([3]; MDA-MB-231, run 2, 96 h, ADC1 study) [µM] | IC50 ([5]; SK-OV-3, run 1, 96 h) [µM] | IC50 ([5]; SK-OV-3, run 2, 96 h) [µM] | IC50 ([6]; SK-BR-3, run 1, 96 h) [µM] | IC50 ([6]; SK-BR-3, run 2, 96 h) [µM]
1 | CC[C@H](C)[C@@H]([C@@H](CC(=O)N1CCC[C@H]1[C@H](OC)[C@@H](C)C(=O)N[C@@H](Cc1ccccc1)C(=O)O)OC)N(C)C(=O)[C@@H](NC(=O)[C@H](C(C)C)N(C)C)C(C)C [AF, Auristatin F, reference compound] (NMe2Val-V[Dil][Dolaproine]F-OH) | 0.0828 | 0.1 µM and ~0.1 µM | 0.154 | 0.145 | 0.0374 | 0.0188 | 0.0537 | 0.0218 | – | – | – | – | – | – | – | – | – | – | – | –
2 | COc1cc2cc(c1Cl)N(C)C(=O)C[C@H](OC(=O)[C@H](C)N(C)C(=O)CCS)[C@]1(C)O[C@H]1[C@H](C)[C@@H]1C[C@@](O)(NC(=O)O1)[C@H](OC)/C=C/C=C(\C)C2 [DM1, N2′-deacetyl-N2′-(3-mercapto-1-oxopropyl)-maytansine, reference compound] | – | – | – | – | – | – | – | – | 0.0442 | 0.057 | 0.0028 | 0.003 | – | – | – | – | – | – | – | –
3 | AF-Arg | 0.18 | 0.147 µM | 0.24 | 0.205 | ~0.098 | 0.0209 | ~0.111 | 0.0249 | – | – | – | – | about 70% | greater than 85% | 0.0152 | 0.00584 | 0.0826 | 0.243 | ~0.0921 | 0.128
